Laboratory results: patent US5547684A, “Cosmetic composition containing a DNA-sodium salt and methods of making and using the same” (priority 1993, dated 1996)

How the values were obtained:
HIV-1 (HTLV-IIIB) = assay: Anti-virus activity of AC-series preparations on infected cells (syncitia, p24 antigen); format: cell-based
Protocol: Antiviral activity of these preparations toward HIV-1 was studied using as the model, cellular cultures infected with HIV-1.
The testing of anti-virus activity was conducted using two types of interwoven cellar lines sensitive to infecting by AIDS-virus--the MT-4 cells and Yurkat tat III cells. The cells were harvested in suspension form in a PPMI 1640 medium containing 15% of fetal serum with exposure to the atmosphere characterized by 5% CO2 content, 98% humidity level and 37% C. temperature level. The cells were infected by the HTLV-IIIB culture of AIDS-1 virus in accordance with WHO recommendations for conducting scientific researches on testing pharmaceutical preparations. The methods used for determining anti-virus activity of the tested preparations are recommended for similar purposes by the WHO Reference Laboratory (Belgium) headed by Professor de Clerk who is an internationally recognized leading expert in synthesis and screening chemical preparations for AIDs treatment (I. Antimicrob. Chemoter., 1989, No. 23, Suppl. A 35-46). […]
(§1) The cells were incubated for 6 days under similar conditions and thereafter their viability was determined as well as formation of virus-induced syncytia and virus antigen (p24) using immunofermental analysis. […] The viable cells were counted using thripane blue dye-stuff in the Goryayev chamber.

[1] = test system: MT-4 cells and Yurkat tat III cells; assay: Cell viability / toxic effect on cells, AC-series preparations; format: cell-based, human
Protocol: The testing of anti-virus activity was conducted using two types of interwoven cellar lines sensitive to infecting by AIDS-virus--the MT-4 cells and Yurkat tat III cells. The cells were harvested in suspension form in a PPMI 1640 medium containing 15% of fetal serum with exposure to the atmosphere characterized by 5% CO2 content, 98% humidity level and 37% C. temperature level. The cells were infected by the HTLV-IIIB culture of AIDS-1 virus in accordance with WHO recommendations for conducting scientific researches on testing pharmaceutical preparations. The methods used for determining anti-virus activity of the tested preparations are recommended for similar purposes by the WHO Reference Laboratory (Belgium) headed by Professor de Clerk who is an internationally recognized leading expert in synthesis and screening chemical preparations for AIDs treatment (I. Antimicrob. Chemoter., 1989, No. 23, Suppl. A 35-46). The work was done at the Virology Institute of the U.S.S.R. Academy of Medical Sciences on MT-4 human lymphoid cells and on Yurkat tat III cells as indicated above.
as §1

normal cells = details: cited from earlier work
CEM-SS and MT-4 cells = assay: Cytotoxicity of preparations, threpane blue vitality of cells; format: cell-based, human; details: Table 1; comparison preparation, no ratio
Protocol: The antiviral activity of the preparation was tested according to the method recommended by WHPO for these purposes. CEM-SS and MT-4 reinoculated human cell lines were used. The cells were cultivated in the concentration of (0.03-0.05)*10^6 cells per 1 ml of RPMI 1640 medium with 10% calf fetal serum, 300 mg/ml of L-glutamine, 100 mcg/ml of gentamicin and grown in the form of a suspension. The vitality of cells was tested by dyeing them with 0.4% solution of threpane blue dye stuff. HIV-IVS and HIV-1 HTLV/IIIB strains were used as the virus sources.

[2] = test system: HIV (HIV-IVS and HIV-1 HTLV/IIIB strains); assay: HIV suppression in vitro (syncitia, viral antigen IFA), CEM-SS and MT-4 cells; format: cell-based; details: Table 1; comparison preparation, no ratio
Protocol: Complexes of DNA-Na with zinc, cobalt, nickel and iron were used for HIV suppression in in vitro systems with various concentrations of the components in the complexes. AZT manufactured by "Wellcome" Company was used for comparison purposes. The antiviral activity of the preparation was tested according to the method recommended by WHPO for these purposes. CEM-SS and MT-4 reinoculated human cell lines were used. The cells were cultivated in the concentration of (0.03-0.05)*10^6 cells per 1 ml of RPMI 1640 medium with 10% calf fetal serum, […] of L-glutamine, 100 mcg/ml of gentamicin and grown in the form of a suspension. The vitality of cells was tested by dyeing them with 0.4% solution of threpane blue dye stuff. HIV-IVS and HIV-1 HTLV/IIIB strains were used as the virus sources.
The cell suspension was placed into 24 well panels, processed by various doses of preparations and then infected by HIV. The infection multiplicity was 0.01 TCD50 per cell. After that, the cultures were incubated at 37° C. in a 5% CO2 atmosphere and 98% humidity for 5-7 days up to the moment of defining the cytopathic effect of the virus upon the cell culture.
Immunophermentative analysis was used to define formation of viral antigen.

mice = details: 10 mg/kg injected intercerebrally; cited from earlier work
in vivo = details: mouse, in vivo
Protocol: (§2) The studies on toxicity of AC-1 and AC-4 and of aziodothymidine were conducted on non-linear white mice weighing 6 to 7 grams, making use of different concentrations of preparations per kg of weight of the animal in the volume of 0.2 ml in hypodermic, intranasal and intraabdominal injections and 0.03 ml in intracerebral injections. The animals were kept under observation for 2 weeks and then LD50 was calculated using Curber method. The lethal dose of the preparation which has caused death of 50% of the animals was considered an LD50 dose. The preparation was used as a sterile solution was a concentration of 0.05%.
(§3) The animals were kept under observation for 2 weeks and then LD50 was calculated using Curber method. The lethal dose of the preparation which caused death of 50% of the animal was considered the LD50 dose.

white mice = assay: in vivo; details: for surviving mice / infected mice: Table 3
Protocol: as §2, §3

With `Cc1cn([C@H]2C[C@H](N=[N+]=[N-])[C@@H](CO)O2)c(=O)[nH]c1=O` [AZT, azidothymidine] the “antigen (p24) content” value (HIV-1 (HTLV-IIIB); 1.0 mcm/ml, virus control 2.0 ng/ml) was 1 ng/mL, the immunofermental activity (HIV-1 (HTLV-IIIB); Table 2, virus antigen (p24), 270 mkg/ml, 6th day) was 0.1 ng/mL and the viability at 270 µg/mL ([1]; Homo sapiens, MT4, 144 h) was 96%. The “toxicity on the cell level” value ([1]; all the above biologically active concentrations) was “nontoxic”, the normal cells killed (normal cells; optimal dose) was “about 30%” and the CC50 (normal cells; read-out: LD50 for cells, cells) was ≤ 100 mM. The “cytotoxicity: quantity of cells in ml of cultural liquid” value (CEM-SS and MT-4 cells) was 0.61 × 10^8, the IFA optical density [2] was 0.091 and the IFA viral antigen [2] was 0.1 ng/mL. The “quantity of syncitia, % from the control virus” value [2] was 8%, the death of animals (mice) was 50% and the LD50 at 336 h (in vivo) was 10 mg/kg. The mortality at 336 h (in vivo; 10 mg/kg) was 50%, the “surviving mice / infected mice” value (white mice; hypoderm., 5 mg/kg) was 6/6 and the “surviving mice / infected mice” value (white mice; hypoderm., 10 mg/kg) was 6/6. For the same molecule, the “surviving mice / infected mice” value (white mice; hypoderm., 20 mg/kg) was 6/6, the “surviving mice / infected mice” value (white mice; hypoderm., 35 mg/kg) was 6/6 and the “surviving mice / infected mice” value (white mice; hypoderm., 50 mg/kg) was 6/6. For the same molecule, the “surviving mice / infected mice” value (white mice; hypoderm., 75 mg/kg) was 6/6, the “surviving mice / infected mice” value (white mice; in/abdom., 5 mg/kg) was 6/6 and the “surviving mice / infected mice” value (white mice; in/abdom., 10 mg/kg) was 6/6. The “surviving mice / infected mice” value (white mice; in/abdom., 20 mg/kg) was 6/6, the “surviving mice / infected mice” value (white mice; in/abdom., 35 mg/kg) was 6/6 and the “surviving mice / infected mice” value (white mice; in/abdom., 50 mg/kg) was 6/6. The “surviving mice / infected mice” value (white mice; in/abdom., 75 mg/kg) was 6/6, the “surviving mice / infected mice” value (white mice; in/cerebr., 5 mg/kg) was 6/6 and the “surviving mice / infected mice” value (white mice; in/cerebr., 10 mg/kg) was 6/6. For the same molecule, the “surviving mice / infected mice” value (white mice; in/cerebr., 20 mg/kg) was 6/6, the “surviving mice / infected mice” value (white mice; in/cerebr., 35 mg/kg) was 6/6 and the “surviving mice / infected mice” value (white mice; in/cerebr., 50 mg/kg) was 6/6. The “surviving mice / infected mice” value (white mice; in/cerebr., 75 mg/kg) was 6/6, the “surviving mice / infected mice” value (white mice; in/nasal, 5 mg/kg) was 6/6 and the “surviving mice / infected mice” value (white mice; in/nasal, 10 mg/kg) was 6/6. The “surviving mice / infected mice” value (white mice; in/nasal, 20 mg/kg) was 6/6, the “surviving mice / infected mice” value (white mice; in/nasal, 35 mg/kg) was 6/6 and the “surviving mice / infected mice” value (white mice; in/nasal, 50 mg/kg) was 6/6. The “surviving mice / infected mice” value (white mice; in/nasal, 75 mg/kg) was 6/6 and the toxicity (white mice; all injection methods, 5 to 50 mg/kg, except intracerebral 10 to 50 mg/kg) was “non-toxic”.
